In patent US20080213910A1, “METHOD FOR BLOCKING NON-SPECIFIC PROTEIN BINDING ON A FUNCTIONALIZED SURFACE” (priority 2006, published 2008):

Legend:
SA surface [1] = target: T1, SA surface (Streptomyces avidinii, UniProt P22629); experiment: Biotin binding to SA surface in FBS, with and without trehalose blocking; conditions: for shift from biotin binding to SA surface: SA shift 5.8 nm
Protocol: In order to test the affect of trehalose on specific protein-protein interactions, the ability of trehalose to interfere with the ability of biotin to bind to a SA surface was measured. Biotin in either 10% or 100% FBS was allowed to react with the SA surface with the 5.8 nm PWV shift, and the resulting shift measured (see Table 8). The theoretical shift resulting from Biotin binding, shown in parenthesis, was calculated from the following formula: (Mol. Wt. of Biotin/Mol. Wt. of SA)×# of binding sites on SA for biotin×SA shift, or (244/55000)×4 (binding sites)×5.8 nm (SA shift).

Carbonic Anhydrase (CA) = experiment: CBS binding to carbonic anhydrase after blocking with 5% trehalose (PWV shift); conditions: 5% trehalose block
Protocol: FIG. 5 represents the normalized peak wavelength value (PWV) resulting from CBS binding to carbonic anhydrase after blocking with 5% trehalose.
The CA surface was blocked with 5% trehalose. Trehalose blocking of non-specific interactions of CBS to the surface enabled detection of specific binding to CA below 1 μM.

[2] = Sugars binding to amine surfaces (PWV change); conditions: for PWV change after over night incubation and wash: stored overnight in water
Protocol: Lactose and glyceraldehyde solutions in water at 5% and 2.5% respectively were added to a BIND™ sensor plate functionalized with amine functional groups for 2 hrs. The plate was then washed thoroughly with water and stored overnight in water. The plates were then washed again with water and the binding of sugars was measured.

[3] = Blocking of streptavidin (SA) surface with 5% trehalose (blocker PWV shift); assay type: binding; conditions: 2 hrs
Protocol: (§1) 40 μl of 5% Trehalose solution was added to SA immobilized wells (0.05 mg/ml SA and 0.2 mg/ml SA) and control wells (Trehalose alone) and were allowed to bind for 2 hrs. The plates were washed and the peak wavelength value (PWV) shift was measured (See Table 6 and FIG. 2). The SA shift was the PWV of SA binding to the aldehyde surface, while the blocker shift was the PWV shift obtained after the blocker was allowed to bind to the unreacted aldehyde functional groups on the SA-immobilized aldehyde surface. The unreacted aldehydes are more easily accessed by the small blocker molecule than the bigger SA molecules. The blocker shift is lower with higher SA concentration likely because there are less aldehydes available for binding the blocker in these wells.

SA surface [4] = target: T1, SA surface; experiment: Trehalose efficacy to reduce non-specific FBS binding to the SA surface; conditions: for FBS 10% binding to SA surface (shift normalized to trehalose shift) / FBS 100% binding to SA surface (shift normalized to trehalose shift): blocked with 5% Trehalose
Protocol: In order to test the efficacy of trehalose to reduce non-specific binding, the ability of trehalose to reduce Fetal Bovine Serum (FBS) binding to the SA surface was measured. 10% and 100% commercially available FBS was allowed to react with either the SA surface with the 2 nm PWV shift or the 5.8 nm PWV shift, and the resulting shift measured (see Table 7 and FIG. 3). The shifts were normalized to the trehalose shift by considering the resulting signal after the surface has been blocked to be zero, or baseline. The change in binding due to the protein present in FBS is then measured and reported as non-specific binding.

[5] = SA binding to the aldehyde surface (PWV shift)
Protocol: as §1

T1 sequence (P22629 25-183): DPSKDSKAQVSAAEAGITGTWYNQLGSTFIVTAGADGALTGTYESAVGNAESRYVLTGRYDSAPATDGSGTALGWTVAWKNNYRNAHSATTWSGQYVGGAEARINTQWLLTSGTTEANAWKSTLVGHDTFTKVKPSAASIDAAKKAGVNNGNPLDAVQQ

## O=C(O)CCCC[C@@H]1SC[C@@H]2NC(=O)N[C@@H]21 [Biotin]
SA surface [1]; (244/55000) x 4 binding sites x 5.8 nm SA shift
  theoretical shift resulting from Biotin binding (in parenthesis): 0.104 nm
SA surface [1]; biotin in FBS 10%, 5% Trehalose
  shift from biotin binding to SA surface: 0.09 nm
SA surface [1]; biotin in FBS 10%, No Trehalose
  shift from biotin binding to SA surface: 0.08 nm
SA surface [1]; biotin in FBS 100%, 5% Trehalose
  shift from biotin binding to SA surface: 0.1 nm
SA surface [1]; biotin in FBS 100%, No Trehalose
  shift from biotin binding to SA surface: 0.12 nm

## NS(=O)(=O)C(=O)O [CBS, Carboxysulfonamide]
Carbonic Anhydrase (CA); CBS 0.05 μM
  PWV shift of CBS binding to CA: 0.000 nm
Carbonic Anhydrase (CA); CBS 0.10 μM
  PWV shift of CBS binding to CA: 0.001 nm
Carbonic Anhydrase (CA); CBS 0.20 μM
  PWV shift of CBS binding to CA: 0.003 nm
Carbonic Anhydrase (CA); CBS 0.39 μM
  PWV shift of CBS binding to CA: 0.005 nm
Carbonic Anhydrase (CA); CBS 0.78 μM
  PWV shift of CBS binding to CA: 0.010 nm
Carbonic Anhydrase (CA); CBS 1.56 μM
  PWV shift of CBS binding to CA: 0.020 nm
Carbonic Anhydrase (CA); CBS 3.13 μM
  PWV shift of CBS binding to CA: 0.037 nm
Carbonic Anhydrase (CA); CBS 6.25 μM
  PWV shift of CBS binding to CA: 0.045 nm
Carbonic Anhydrase (CA); CBS 12.50 μM
  PWV shift of CBS binding to CA: 0.054 nm
Carbonic Anhydrase (CA); CBS 25.00 μM
  PWV shift of CBS binding to CA: 0.054 nm
Carbonic Anhydrase (CA); CBS 50.00 μM
  PWV shift of CBS binding to CA: 0.062 nm

## O=CC(O)CO (stereo not shown) [Glyceraldehydes, glyceraldehyde]
[2]; 2.5% solution in water
  PWV change after 2 hr incubation and wash: 1.75 nm
  PWV change after over night incubation and wash: 1.72 nm

## OC[C@H]1O[C@@H](O[C@H]2[C@H](O)[C@@H](O)C(O)O[C@@H]2CO)[C@H](O)[C@@H](O)[C@H]1O (stereo partly shown) [Lactose]
[2]; 5% solution in water
  PWV change after 2 hr incubation and wash: 4.86 nm
  PWV change after over night incubation and wash: 4.82 nm

## OC[C@H]1O[C@H](O[C@H]2O[C@H](CO)[C@@H](O)[C@H](O)[C@H]2O)[C@H](O)[C@@H](O)[C@@H]1O [Trehalose]
[3]; aldehyde surface (no streptavidin)
  Blocker shift 5% Trehalose: 2.91 nm
[3]; wells immobilized with 0.05 mg/mL SA
  Blocker shift 5% Trehalose: 2.96 nm
[3]; wells immobilized with 0.2 mg/mL SA
  Blocker shift 5% Trehalose: 2.19 nm
SA surface [4]
  effect on non-specific binding of proteins from FBS to the SA surface: reduced the non-specific binding of proteins from FBS to the SA surface
SA surface [4]; SA shift 2 nm surface
  FBS 10% binding to SA surface (shift normalized to trehalose shift): 2.41 nm
  FBS 100% binding to SA surface (shift normalized to trehalose shift): 1.27 nm
SA surface [4]; SA shift 5.8 nm surface
  FBS 10% binding to SA surface (shift normalized to trehalose shift): 0.62 nm
  FBS 100% binding to SA surface (shift normalized to trehalose shift): 0.07 nm
SA surface [1]
  interference with biotin binding to SA: does not seem to interfere with biotin binding

## streptavidin [SA]
[5]; 0.05 mg/mL SA during immobilization
  SA shift: 2.00 Nm
[5]; 0.2 mg/mL SA during immobilization
  SA shift: 5.81 Nm
